Series [1] can be described thus: Pharmacokinetic profile in the Wistar rat, lipid versus aqueous formulation. The conditions noted are these: Drug from Example 1 administered 100 mg/kg p.o., plasma. Format: in vivo, male Wistar rats. As for the experimental part: The pharmacokinetic profile of N-(4-hydroxyphenyl)-3-{6-[((3S)-3-(4-morpholinyl-methyl)-3,4-dihydro-2(1H)-isoquinolinyl)carbonyl]-1,3-benzodioxol-5-yl}-N-phenyl-5,6,7,8-tetrahydro-1-indolizine carboxamide (also referred to as the drug from Example 1) is also evaluated in a lipid and aqueous formulation in the Wistar rat.
The drug from Example 1 is prepared in an aqueous suspension in hydroxyethylcellulose 1% (w/v) in water and compared to a lipid formulation composed of a mixture of anhydrous ethanol/polyethylene glycol 400/Phosal 50PG ([…], v/v/v). The two formulations are administered by the oral route to male Wistar rats (3 rats per formulation) at a dose of 100 mg/kg p.o. (gavage, 10 mL/kg).
Blood samples are taken at the following points in time from each animal (3 animals/point in time): 0.25 hr, 0.5 hr, 0.75 hr, 1 hr, 2 hrs, 4 hrs, 8 hrs and 24 hrs after oral administration.
The plasma concentrations of the tested compound are determined after extraction followed by liquid chromatography coupled with mass spectrometric detection. The limit of quantification is 0.1 ng/mL.

For the next series, the system named is human Caco-2 cells. The experiment in a line: In vitro test on human Caco-2 cells, cellular transport A to B. It counts as in vitro ADME. The following applies: drug incubated and measured, 120 minutes. In short, it runs like this: (§1)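 Apical-to-basolateral transport, prodrug or drug dosed apically at 1 or 3 μM in duplicate for 120 minutes. Apical samples at 0 and 120 min and basolateral samples at 120 min quantified by LC-MS/MS (LOQ 2 ng/mL) for prodrug and drug. Papp, predicted human Fabs and percent recovery calculated.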

Experiment in series [2]: as above
Format: in vitro ADME. The following applies: human, Caco-2, drug incubated and measured, A to B, 1 or 3 μM, read-out: Papp, the drug after incubation of the drug. In short, it runs like this: as §1

Where [3] appears, read: aqueous formulation (suspension in hydroxyethylcellulose 1% in water).
Setting [4] is: lipid formulation (anhydrous ethanol/polyethylene glycol 400/Phosal 50PG).

Take `O=C(c1cc(-c2cc3c(cc2C(=O)N2Cc4ccccc4C[C@H]2CN2CCOCC2)OCO3)n2c1CCCC2)N(c1ccccc1)c1ccc(O)cc1` [Drug from Example 1, N-(4-hydroxyphenyl)-3-{6-[((3S)-3-(4-morpholinylmethyl)-3,4-dihydro-2(1H)-isoquinolinyl)carbonyl]-1,3-benzodioxol-5-yl}-N-phenyl-5,6,7,8-tetrahydro-1-indolizine carboxamide]: in series [1] (setting [3]), the “AUCt, compound measured: Drug from Example 1” value was “AUCt (ng · h/mL) = 3480” and the “Cmax, compound measured: Drug from Example 1” value was “Cmax (ng/mL) = 816”. Also, in series [1] (setting [4]), the “AUCt, compound measured: Drug from Example 1” value is “AUCt (ng · h/mL) = 42900” and the “Cmax, compound measured: Drug from Example 1” value is given as “Cmax (ng/mL) = 5070”. Also, the “Yield (experiment yield), the drug after incubation of the drug” value with human Caco-2 cells is reported as “Yield (%) = 37”. Further, the “Fabs (predicted absorbed fraction in humans), the drug after incubation of the drug” value in the series on human Caco-2 cells (A to B, 1 or 3 μM) is “Fabs (%) = 67”. The Papp A→B at 120 min in series [2] is 0.65 ×10⁻⁶ cm/s.

These data come from US9115159B2, “Phosphate compounds, a process for their preparation and pharmaceutical compositions containing them” (LES LABORATOIRES SERVIER, priority 2013, dated 2015).
